Test results as given in PMC5131364, “Pharmacologic modulation of RORγt translates to efficacy in preclinical and translational models of psoriasis and inflammatory arthritis” (Scientific Reports, 2016).
Read-outs that look alike come from different tables or passages of the source.

Tests used:
[1] = system: naïve CD4+ T cells under Th17-polarizing conditions; assay: In vitro mouse Th17 differentiation; type: cell-based; settings: for IC50: Mus musculus, CD4+ T
Source text: The following antibodies (anti-mouse or anti-human) were purchased from BD Biosciences (San Diego, CA) or eBioscience (San Diego, CA): anti-CD3-FITC (mouse 17A2 and human SK7), anti-CD4-allophycocyanin (APC), anti-CD4-PerCp, anti-CD4-FITC, anti-CD4-PE (mouse GK1.5 and human SK3), anti-CD44-PerCp (mouse IM7), anti-γδ TCR-FITC, anti-γδ TCR-PE (mouse GL3 and human B1), anti-CD62L-FITC (mouse MEL-14 and human SK11), anti-CD45RO-APC (human UCHL1), anti-CCR6-PE (human 11A9), anti-CD45-PerCp (mouse 30-F11). Human or mouse anti-IFNγ (mouse XMG1.2 and human 4S.B3), anti-TNFα (mouse MP6-XT22 and human MAB11), anti-IL-17A (mouse eBio17B7 and human eBio64DEC17), anti-IL-22 (mouse 1H8PWSR and human 22URTI), and anti-Foxp3 (mouse FJK-16s and human 36A/E7), all PE or APC conjugated, were purchased from eBioscience (San Diego, CA). Human and mouse APC conjugated CD1d tetramers pre-loaded with alpha-GalCer and negative controls were obtained from ProImmune. For intracellular staining cells were stimulated for 4 hours at 37 °C with PMA and ionomycin (0.5 μg/ml each) in the presence of brefeldin A and monensin or with leukocyte activation cocktail (BD Bioscience, San Diego, CA). Cells were stained with fluorescence-labeled antibodies for surface marker, then fixed/permeabilized (eBioscience) and stained with antibodies for intracellular cytokines. For Foxp3 staining cells were fixed/permeabilized using transcription factor buffer set (eBioscience). The data were acquired on a FACS Calibur (BD Bioscience) and analyzed using FlowJo software (Tree Star, San Carlos, CA).
Naïve CD4^+ T cells were isolated from splenocytes of C57BL/6N mice using a naïve CD4^+ T cell isolation kit II (Miltenyl Biotec, Auburn, CA), following the manufacturer’s instructions. Cells were resuspended in culture medium (RPMI-1640 medium supplemented with 10% fetal bovine serum, 50 IU/ml penicillin, 50 μg/ml streptomycin, 2 mM glutamine, and 55 μM β-mercaptoethanol), and were added to 96-well plates at 2 × 10^5 per well. […] Cells were incubated for 1 hour, after which Th17 cell differentiation medium was added with final concentrations of 1 μg/ml anti-CD3, 5 μg/mL anti-CD28 (BD Pharmingen, San Diego, CA), 10 μg/ml anti-IL-4, 10 μg/ml anti-IFNγ, 10 ng/mL IL-23, 10 ng/mL IL-6, and 10 ng/ml TGFβ (R&D Systems, Minneapolis, MN). Cells were cultured at 37 °C and 5% CO2 for 3 days. Supernatants were collected and the accumulated cytokines in culture were measured by ELISA kits (R&D Systems, Minneapolis, MN) following manufacturers’ instructions. Cells were harvested for staining and flow cytometry analysis.

[2] = system: CLA+ memory T cells / autologous epidermal cells from guttate psoriasis patients; assay: Co-culture of human psoriatic CLA+ memory T cells with epidermal cells, streptococcal extract; type: cell-based
Source text: The study protocol was reviewed and subsequently approved by the Medical Ethics Committee of the Hospitals where the biopsies and blood were procured. All psoriasis donors in this study were required to be without disease-specific systemic therapy for at least 4 weeks or topical treatment for at least 2 weeks before the clinical samples were obtained. Circulating CLA^+/CLA^− CD45RO^+ CD3^+ cells and lesional epidermal cells were obtained from the same guttate psoriasis patient following the procedure described previously. In brief, memory T cell populations were isolated and enriched from peripheral blood lymphocytes by immunomagnetic separations. Epidermal cell suspensions were obtained from lesional biopsies by a dispase/trypsin treatment. The culture system was performed by seeding 50,000 circulating CLA^+ or CLA^− memory T cells with 30,000 autologous epidermal cells in a 96-flat bottom microwell plate (Nunc, Roskilde, Denmark) with culture medium (RPMI with 10% fetal calf serum). […] Cytokines in supernatants were quantified by multiplex fluorescent bead-based immunoassay, Diaclone DIAplex kit (Gen-Probe, Besançon, France), and data were collected with a F500 Flow Cytometer (Beckman Coulter, Fullerton, CA).

[3] = 1 μM, SE-stimulated CLA+/epidermal cell co-culture, not statistically significant

IC50 ([1]; Th17-polarizing condition, supernatant, read-out: IC50, IL-17A production): 17 nM | IC50 ([1]; flow cytometry, read-out: IC50, total IL-17A-producing cells): 21 nM
SMILES: COc1nc2ccc([C@@](O)(c3ccc(C)nc3C)c3cnnn3C)cc2c(Cl)c1Cc1ccc(C(F)(F)F)cc1 [JNJ-54271074]
IL-17A-producing cells ([1]; 1 μM, flow cytometry): almost completely abolished | TNFα production ([1]; Th17-polarizing condition, supernatant): did not inhibit | TNFα and IL-8 production ([2]; 1 μM, SE-stimulated CLA+/epidermal cell co-culture): no effect | increase of IFNγ production [2, 3]: 64% | reduction of IL-6 [2, 3]: 32% | reduction of IL-17F production [2, 3]: 40% | decrease of IL-17A production ([2]; 1 μM, SE-stimulated CLA+/epidermal cell co-culture, vs DMSO, significant): 78% | IL-17A production in human cell co-culture model ([2]; discussion, in words): significant inhibition
